The target in assay [1] is carnitine acetyltransferase (CAT). Further details: method as in PMID 39942839. To be noted: positive control; ref [21]; cited from earlier work.
Assay [2] concerns the target T1, carnitine acetyltransferase (CAT) (Columba livia, UniProt P52826).
T1 construct: an enzyme isolated from pigeon breast muscle (Sigma Aldrich) was used in the form of an ammonium sulfate suspension; tissue Sigma-Aldrich; host or cells: pigeon breast muscle
T1 sequence (P52826 31-627): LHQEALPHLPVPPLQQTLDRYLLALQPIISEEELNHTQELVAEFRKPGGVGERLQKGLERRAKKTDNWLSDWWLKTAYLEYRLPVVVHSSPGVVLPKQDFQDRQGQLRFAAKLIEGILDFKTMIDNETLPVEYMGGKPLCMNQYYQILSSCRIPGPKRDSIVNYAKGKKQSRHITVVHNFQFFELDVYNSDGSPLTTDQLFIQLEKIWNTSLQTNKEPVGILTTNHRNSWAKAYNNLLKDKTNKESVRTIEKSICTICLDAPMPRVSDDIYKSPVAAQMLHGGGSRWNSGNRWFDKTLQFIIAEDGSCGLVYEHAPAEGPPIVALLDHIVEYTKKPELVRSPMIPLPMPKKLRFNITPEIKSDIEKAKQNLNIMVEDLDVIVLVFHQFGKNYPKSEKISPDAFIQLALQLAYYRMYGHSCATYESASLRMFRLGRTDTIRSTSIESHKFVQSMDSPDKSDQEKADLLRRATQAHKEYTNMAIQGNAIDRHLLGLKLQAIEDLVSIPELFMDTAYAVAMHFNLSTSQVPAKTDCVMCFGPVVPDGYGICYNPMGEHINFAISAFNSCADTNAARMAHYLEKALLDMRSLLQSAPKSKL
Kind of assay: Kinetic studies of CAT inhibition mechanism (Michaelis-Menten / Lineweaver-Burk, SigmaPlot regression). To be noted: for Type / mechanism of inhibition: model chosen by R^2, AIC and Sy,x. The class given is biochemical, pigeon. An excerpt:
These experiments allowed us to identify the inhibition mechanism and calculate Km, Vmax and Ki. We used SigmaPlot version 12.5 (Systat Software Inc., San Jose, CA, USA), which includes modules for regression analysis and various inhibition models. This software also lets us choose the mechanism of inhibition with the highest correlation factors (coefficient of determination (R^2) and Akaike information coefficient (AIC)) and the lowest Sy,x value. The numerical results are summarized in Table 1, while the corresponding Lineweaver–Burk and Michaelis–Menten kinetic plots are available in the Supplementary Materials.
(Michaelis-Menten) and 1/v0 vs. […] (Lainweaver-Burke) relationships. For this purpose, five solutions with different concentrations of the inhibitor and five solutions with different concentrations of L-carnitine were prepared. […] The time for reading the results is every six seconds for three minutes after the start of the reaction, which corresponds to the end of the linear interval. The initial velocity v0 was determined using the method proposed by Baici, by calculating the cut-off of the v vs. t (time) dependence for the linear interval of each of the reactions. Graphical dependencies are provided in the Supplementary Materials (Figures S1–S3).
Figure S2. Graphs representing the dependence of the initial velocity (v 0) on the concentration of the substrate [S], according to the model of Michaelis -Menten – left, and Lineweaver-Burk – right, for reversible a) mixed, b) non-competitive, c) uncompetitive and d) competitive inhibition. The concentration of the inhibitor - compound cis-8 are 0 μM, 25.6 μM, 51.2 μM and 68.3 μM, concentration of L-carnitine are 94 μM, 180 μM, 370 μM, 750 μM and 1500 μM.
Figure S3. Graphs representing the dependence of the initial velocity (v 0) on the concentration of […]
for reversible a) mixed, b) uncompetitive, c) non-competitive and d) competitive inhibition. The concentration of the inhibitor - compound trans-8 are 0 μM, 26.0 μM, 52.0 and 69.4 μM,

Assay [3] deals with T1, carnitine acetyltransferase (CAT). Kind of assay: Initial screening of CAT inhibition, spectrophotometric kinetic method with Ellman's reagent. To be noted: read in first minute of reaction. It is filed as biochemical. As for the experimental part:
To assess the inhibitory potential of the synthesized compounds against CAT, we conducted an initial screening at three concentrations: 100 μM, 250 μM and 1000 μM. Readings were taken within the first minute after the reaction started, and inhibition was measured using a kinetic method, as described in the Experimental section. The results are summarized and presented as a percentage of inhibition in Figure 2 and Figure 3 for the 3-alkyl-3,4-dihydroisocoumarin-4-carboxylic acids and the 3-alkyl/3-aryl-6,7-dimethoxy-3,4-dihydroisocoumarin-4-carboxylic acids, respectively.
To determine the effect of the synthesized compounds on CAT activity, a modified procedure for spectrophotometric determination of L-carnitine using Ellman’s reagent was used. In all analyses, an enzyme isolated from pigeon breast muscle (Sigma Aldrich) was used in the form of an ammonium sulfate suspension with an activity of 71 U/mg protein. One unit of enzyme catalyzes the conversion of 1 μmol of L-carnitine and acetyl-CoA into acetylcarnitine and free CoA in 1 min. Phosphate buffer (0.5 M, pH = 7.6) is used to dilute the enzyme to obtain a stock solution with a concentration of 24 U/mL.
Ellman’s reagent was prepared immediately before each measurement by dissolving 25 mg DTNB in 5 mL 1 mM solution of Na2EDTA in phosphate buffer (0.5 M, pH = 7.6). Stock solutions of acetyl-CoA and L-carnitine were prepared in deionized water with concentrations of 348.0 μM and 303.4, respectively. An aqueous solution of tris (hydroxymethyl) aminomethane (TRIS) with pH = 7.6 and 1 M concentration was used as a buffer solution. Test compounds were dissolved and diluted in phosphate buffer (0.5 M, pH = 7.6) to the desired stock concentration. The working volume of the reaction is 300 μL and contains 50 μL of each of the six components (DTNB, TRIS, acetyl-CoA, CAT, L-carnitine and inhibitor) solutions with concentrations as described below. In the control samples, the inhibitor solution is replaced with phosphate buffer (0.5 M, pH = 7.6). The incubation time for all components without L-carnitine is 5 min at 37 °C. The reaction was started by adding L-carnitine, and its progress was monitored by reading the change in absorbance at 405 nm in kinetic mode. The concentrations of the components in the final volume were, c (DTNB) = 114 μM, c (TRIS) = 100 mM, c (acetyl-CoA) = 58 μM, c (CAT) = 4 U/mL and c (L-carnitine) = 50.56 μM. The time for reading the results was the first minute after starting the reaction.
(DTNB colorimetry detects thiols as they appear.)

[4] abbreviates: fit to competitive inhibition model.
Setting [5] is: fit to non-competitive inhibition model.
[6] abbreviates: fit to uncompetitive inhibition model.

The structures appear in SMILES notation. “Also recorded” adds a separate entry of the source.

One may read the IC50 as the concentration that gives 50% inhibition. Consider `C[N+](C)(C)NCCC(=O)[O-]` [Meldonium], for which the IC50 in assay [1] was 11.4 mM.

One may read the Ki as a dissociation constant, usually derived from enzyme kinetics or from competition with a known ligand. Low values mean a stronger hold on the target, high ones a looser hold on the target. By inhibition is commonly meant the percentage by which the read-out fell short of the control. Turning to `CCCCCCCCCCC1OC(=O)c2cc(OC)c(OC)cc2C1C(=O)O` (racemic) [cis-8, Cis- and Trans-(±)-3-Decyl-3,4-Dihydro-6,7-Dimethoxy-1-Oxo-1H-Isochromene-4-Carboxylic Acids], the AIC in assay [2] (setting [4]) is given as −1519.782; in assay [2] (fit to mixed inhibition model), −1562.764; in assay [2] (setting [5]), −1565.380; in assay [2] (setting [6]) it was −1550.555. In addition, the “Sy,x” value in assay [2] (setting [4]) is reported as 5.211 × 10^−9; in assay [2] (fit to mixed inhibition model), 2.987 × 10^−9; in assay [2] (setting [5]), 2.947 × 10^−9; in assay [2] (setting [6]), 3.547 × 10^−9. In addition, the α in assay [2] (mixed inhibition model) worked out at 0.97; in assay [2] (non-competitive inhibition model), 1. In assay [2] (mixed-type inhibition model, L-carnitine varied), this molecule displayed a Ki of 0.13 mM. Also, the “Type / mechanism of inhibition” value in assay [2] is listed as “mixed-type inhibitors; also recorded: allosteric inhibitor”; in assay [2] (listed as cis-3-decyl-6,7-dimethoxy-3,4-dihydroisocoumarin-4-carboxylic acid) it was “mixed inhibition”. Also, in assay [3] (read-out: CAT inhibition (%), inhibitor 100 μM), the inhibition at 100 µM turned out to be 44%. In addition, in assay [3] (read-out: CAT inhibition (%), inhibitor 250 μM), the inhibition at 250 µM was 71%. Besides, the inhibition at 1000 µM in assay [3] (read-out: CAT inhibition (%), inhibitor 1000 μM) was 85%.

The record behind these values is PMC12348882, “Rational Design, Synthesis and In Vitro Activity of Diastereomeric Cis-/Trans-3-Substituted-3,4-Dihydroisocoumarin-4-Carboxylic Acids as Potential Carnitine Acetyltransferase Inhibitors” (Molecules, 2025).
